The values below come from patent US9271960B2, “Tetrahydrocarbazoles as active agents for inhibiting VEGF production by translational control” (PTC Therapeutics, Inc., priority 2004, dated 2016).

Counter-ions that a name gives are not always drawn.

In one assay the test system is VEGF. In words: Hypoxia-inducible endogenous VEGF expression ELISA in HeLa cells. It counts as cell-based. The conditions noted are these: Homo sapiens, HeLa, compounds 1-155, hypoxic conditions (1% O2), VEGF protein by ELISA, read-out: ELISA Activity. The method, then: The ability of compounds of the invention to modulate hypoxia-inducible endogenous VEGF expression is analyzed as follows. VEGF protein levels are monitored by an ELISA assay (R&D Systems). Briefly, HeLa cells are cultured for 24-48 hours under hypoxic conditions (1% O2, 5% CO2, balanced with nitrogen) in the presence or absence of a compound of the invention. The conditioned media is then assayed by ELISA, and the concentration of VEGF is calculated from the standard ELISA curve of each assay.
A dose-response analysis is performed using the ELISA assay and conditions described above. A series of different concentrations (e.g., seven) are analyzed. In parallel, a dose-response cytotoxicity assay is performed using Cell Titer Glo (Promega) under the same conditions as the ELISA to ensure that the inhibition of VEGF expression is not due to cytotoxicity. Dose-response curves are plotted using percentage inhibition versus concentration of the compound, and EC50 and CC50 values are generated for each compound with the maximal inhibition set as 100% and the minimal inhibition as 0%.
Compounds 156-188 in Table 1 are commercially available. In Table 1, each of the represented compounds is followed by one to five stars.
For orientation: In an ELISA, binding on a coated surface is turned into a signal by an enzyme label.
In the case of `N#Cc1ccn(C2CCCc3c2[nH]c2ccc(Br)cc32)c1` (centres unmarked) [Compound 42, 1-(6-Bromo-2,3,4,9-tetrahydro-1H-carbazol-1-yl)-1H-pyrrole-3-carbonitrile], the EC50 lay within 40 to 200 nM.

As for `O/N=C1\CCCc2c1[nH]c1cc(Br)ccc21` [Compound 92, 7-Bromo-2,3,4,9-tetrahydro-carbazol-1-one oxime], the EC50 is over 1000 nM.

In the case of `Brc1ccc2[nH]c3c(c2c1)CCCC3n1cc2ccsc2c1` (centres unmarked) [Compound 1, 6-Bromo-1-thieno[2,3-c]pyrrol-5-yl-2,3,4,9-tetrahydro-1H-carbazole], the EC50 is under 10 nM.

`O=C(NC1CCCc2c1[nH]c1ccc(Br)cc21)c1ccsc1` (centres unmarked) [Compound 153, Thiophene-3-carboxylic acid (6-bromo-2,3,4,9-tetrahydro-1H-carbazol-1-yl)-amide]: the EC50 lay within 40 to 200 nM.

As for `NC(=O)c1ccc2[nH]c3c(c2c1)CCCC3n1cccc1` (centres unmarked) [Compound 119, 8-Pyrrol-1-yl-6,7,8,9-tetrahydro-5H-carbazole-3-carboxylic acid amide], the EC50 is over 1000 nM.

Regarding `O=C(NC1CCCc2c1[nH]c1ccc(Br)cc21)c1cc2ccccc2o1` (centres unmarked) [Compound 124, Benzofuran-2-carboxylic acid (6-bromo-2,3,4,9-tetrahydro-1H-carbazol-1-yl)-amide], the EC50 fell in the range of 200 to 1000 nM.

For the molecule `O=C1CCCc2c1[nH]c1cc(Br)ccc21` [Compound 110, 7-Bromo-2,3,4,9-tetrahydro-carbazol-1-one], the EC50 is over 1000 nM.

As for `Clc1ccc(NC2CCCc3c2[nH]c2ccc(Br)cc32)cc1Cl` (centres unmarked) [Compound 36, (6-Bromo-2,3,4,9-tetrahydro-1H-carbazol-1-yl)-(3,4-dichloro-phenyl)-amine], the EC50 lay within 40 to 200 nM.

Consider `O=C(NC1CCCc2c1[nH]c1ccc(Br)cc21)c1ccc[nH]1` (centres unmarked) [Compound 126, 1H-Pyrrole-2-carboxylic acid (6-bromo-2,3,4,9-tetrahydro-1H-carbazol-1-yl)-amide], for which the EC50 lay within 40 to 200 nM.

Regarding `O=C(O)c1ccc2[nH]c3c(c2c1)CCCC3n1cccc1` (centres unmarked) [Compound 120, 8-Pyrrol-1-yl-6,7,8,9-tetrahydro-5H-carbazole-3-carboxylic acid], the EC50 was over 1000 nM.

As for `COc1ccc2[nH]c3c(c2c1)CCC/C3=N\O` [Compound 84, 6-Methoxy-2,3,4,9-tetrahydro-carbazol-1 one oxime], the EC50 was over 1000 nM.

Take `O=C(NC1CCCc2c1[nH]c1ccc(Br)cc21)c1cccnc1` (centres unmarked) [Compound 58, N-(6-Bromo-2,3,4,9-tetrahydro-1H-carbazol-1-yl)-nicotinamide]: the EC50 fell in the range of 40 to 200 nM.

For `O=C(NC1CCCc2c1[nH]c1ccc(Br)cc21)c1cc2ccccc2[nH]1` (centres unmarked) [Compound 127, 1H-lndole-2-carboxylic acid (6-bromo-2,3,4,9-tetrahydro-1H-carbazol-1-yl)-amide], the EC50 fell in the range of 40 to 200 nM.

Consider `Cc1cc(C)cc(NC2CCCc3c2[nH]c2ccc(Br)cc32)c1` (centres unmarked) [Compound 23, (6-Bromo-2,3,4,9-tetrahydro-1H-carbazol-1-yl)-(3,5-dimethyl-phenyl)-amine], for which the EC50 fell in the range of 10 to 40 nM.

On to `Clc1ccc(NC2CCCc3c2[nH]c2ccc(Br)cc32)cc1` (centres unmarked) [Compound 3, (6-Bromo-2,3,4,9-tetrahydro-1H-carbazol-1-yl)-(4-chloro-phenyl)-amine], for which the EC50 was under 10 nM.

For the molecule `O=C(NC1CCCc2c1[nH]c1ccc(Br)cc21)c1cccc(Oc2ccccc2)c1` (centres unmarked) [Compound 30, N-(6-Bromo-2,3,4,9-tetrahydro-1H-carbazol-1-yl)-3-phenoxy-benzamide], the EC50 is 10 to 40 nM.

In the case of `FC(F)(F)c1ccc(NC2CCCc3c2[nH]c2ccc(Br)cc32)cc1` (centres unmarked) [Compound 6, (6-Bromo-2,3,4,9-tetrahydro-1H-carbazol-1-yl)-(4-trifluoromethyl-phenyl)-amine], the EC50 is under 10 nM.

On to `O=C(NC1CCCc2c1[nH]c1ccc(Cl)cc21)c1cccs1` (centres unmarked) [Compound 143, Thiophene-2-carboxylic acid (6-chloro-2,3,4,9-tetrahydro-1H-carbazol-1-yl)-amide], for which the EC50 was 40 to 200 nM.

For `O=C1CCCc2c1[nH]c1ccc(C(F)(F)F)cc21` [Compound 60, 6-Trifluoromethyl-2,3,4,9-tetrahydro-carbazol-1-one], the EC50 is 200 to 1000 nM.

Consider `CC(=O)n1c2c(c3cc(Br)ccc31)CCCC2n1cccc1` (centres unmarked) [Compound 13, 1-(6-Bromo-1-pyrrol-1-yl-1,2,3,4-tetrahydro-carbazol-9-yl)ethanone], for which the EC50 was under 10 nM.

For `O=C1c2ccccc2CN1C1CCCc2c1[nH]c1ccc(Br)cc21` (centres unmarked) [Compound 25, 2-(6-Bromo-2,3,4,9-tetrahydro-1H-carbazol-1-yl)-2,3-dihydro-isoindol-1-one], the EC50 lay in the range of 10 to 40 nM.

Turning to `CN(C)c1ccc(NC2CCCc3c2[nH]c2ccc(Br)cc32)cc1` (centres unmarked) [Compound 61, N-(6-Bromo-2,3,4,9-tetrahydro-1H-carbazol-1-yl)-N′,N′-dimethyl-benzene-1,4-diamine], the EC50 lay within 200 to 1000 nM.

Turning to `Fc1cccc(NC2CCCc3c2[nH]c2ccc(Br)cc32)c1F` (centres unmarked) [Compound 32, (6-Bromo-2,3,4,9-tetrahydro-1H-carbazol-1-yl)-(2,3-difluoro-phenyl)-amine], the EC50 was in the range of 10 to 40 nM.

Regarding `Brc1ccc2[nH]c3c(c2c1)CCCCC3Nc1ccccc1` (centres unmarked) [Compound 33, (2-Bromo-5,6,7,8,9,10-hexahydro-cyclohepta[b]indol-6-yl)-phenyl-amine], the EC50 was in the range of 10 to 40 nM.

Take `O/N=C1\CCCc2c1[nH]c1ccc(Cl)cc21` [Compound 93]: the EC50 is over 1000 nM.

As for `c1ccn(C2CCCc3c2[nH]c2ccc(N4CCOCC4)cc32)c1` (centres unmarked) [Compound 104, 6-Morpholin-4-yl-1-pyrrol-1-yl-2,3,4,9-tetrahydro-1H-carbazole], the EC50 is over 1000 nM.

Consider `COC(=O)c1ccn(C2CCCc3c2[nH]c2ccc(Br)cc32)c1` (centres unmarked) [Compound 26, 1-(6-Bromo-2,3,4,9-tetrahydro-1H-carbazol-1-yl)-1H-pyrrole-3-carboxylic acid methyl ester], for which the EC50 lay in the range of 10 to 40 nM.

Regarding `Cc1cc(C(=O)NC2CCCc3c2[nH]c2ccc(Br)cc32)no1` (centres unmarked) [Compound 151, 5-Methyl-isoxazole-3-carboxylic acid (6-bromo-2,3,4,9-tetrahydro-1H-carbazol-1-yl)-amide], the EC50 was in the range of 10 to 40 nM.

Regarding `O=C1CCCc2c1[nH]c1c(Br)cccc21` [Compound 97, 8-Bromo-2,3,4,9-tetrahydro-carbazol-1-one], the EC50 was over 1000 nM.

Still in this assay, the particulars now being: Homo sapiens, HeLa, compounds 191-239, hypoxic conditions, VEGF protein by ELISA, read-out: ELISA Activity EC50.
Take `Brc1ccc2[nH]c3c(c2c1)CCCC3c1ccc(OCC2CO2)cc1` (centres unmarked) [Compound 194]: the EC50 was under 10 nM.

Turning to `COc1ccc(C2CCCCc3c2[nH]c2ccc(Cl)cc32)cc1` (centres unmarked) [Compound 229], the EC50 lay within 10 to 40 nM.

For the molecule `COCCN(C)CC(O)COc1ccc(C2CCCc3c2[nH]c2ccc(Cl)cc32)cc1` (centres unmarked) [Compound 218], the EC50 was 10 to 40 nM.

As for `COCCN(CCOC)CC(O)COc1ccc(C2CCCc3c2[nH]c2ccc(Cl)cc32)cc1` (centres unmarked) [Compound 216], the EC50 lay in the range of 10 to 40 nM.

For the molecule `COCCN(CCOC)CC(O)COc1ccc(C2CCCc3c2[nH]c2ccc(Br)cc32)cc1` (centres unmarked) [Compound 198], the EC50 was under 10 nM.

As to `OC1CCc2c([nH]c3ccc(Br)cc23)C1c1ccc(F)cc1` (centres unmarked) [Compound 239], the EC50 is under 10 nM.

For the molecule `Brc1ccc2[nH]c3c(c2c1)CCCC3c1ccc(OCCCN2CCOCC2)cc1` (centres unmarked) [Compound 210], the EC50 was under 10 nM.

For `OC(COc1ccc(C2CCCc3c2[nH]c2ccc(Br)cc32)cc1)CN1CCOCC1` (centres unmarked) [Compound 196], the EC50 is under 10 nM.

With `OC(COc1ccc(C2CCCc3c2[nH]c2ccc(Cl)cc32)cc1)CN1CCOCC1` (centres unmarked) [Compound 215], the EC50 is 10 to 40 nM.

For `OC(COc1ccc(C2CCCc3c2[nH]c2ccc(Br)cc32)cc1)Cn1ccnn1` (centres unmarked) [Compound 202], the EC50 was under 10 nM.

As to `OC(COc1ccc(C2CCCCc3c2[nH]c2ccc(Cl)cc32)cc1)Cn1cncn1` (centres unmarked) [Compound 235], the EC50 was 10 to 40 nM.

With `CN1CCN(CC(O)COc2ccc(C3CCCc4c3[nH]c3ccc(Br)cc43)cc2)CC1` (centres unmarked) [Compound 201], the EC50 was in the range of 10 to 40 nM.

For the molecule `COc1ccc(C2CCCc3c2[nH]c2ccc(Br)cc32)cc1` (centres unmarked) [Compound 192], the EC50 is under 10 nM.

`OC(COc1ccc(C2CCCc3c2[nH]c2ccc(Cl)cc32)cc1)Cn1cncn1` (centres unmarked) [Compound 222]: the EC50 was 40 to 200 nM.

For the molecule `COCCN(C)CCCOc1ccc(C2CCCc3c2[nH]c2ccc(Br)cc32)cc1` (centres unmarked) [Compound 207], the EC50 is 10 to 40 nM.

The assay is the same for the next values; noted with them: Homo sapiens, HeLa, purchased compounds 156-188, hypoxic conditions, VEGF protein by ELISA, read-out: ELISA Activity.
As to `Cc1ccc2[nH]c3c(c2c1)CCCC3NCCCO` (centres unmarked) [Compound 177, 3-(6-Methyl-2,3,4,9-tetrahydro-1H-carbazol-1-ylamino)-propan-1-ol], the EC50 was over 1000 nM.

In the case of `OCCNC1CCCc2c1[nH]c1ccc(Br)cc21` (centres unmarked) [Compound 168, 2-(6-Bromo-2,3,4,9-tetrahydro-1H carbazol-1-ylamino)-ethanol hydrochloride], the EC50 was over 1000 nM.

Consider `Cc1ccc2c(c1)c1c3n2CCCN(Cc2cccc(Cl)c2)C3CCC1` (centres unmarked) [Compound 180, 4-(3-Chloro-benzyl)-11-methyl-1,2,3,3a,4,5,6,7-octahydro-[1,4]diazepino[3,2,1-jk]carbazole], for which the EC50 is over 1000 nM.

The assay is the same for the next values; noted with them: Homo sapiens, HeLa, purchased compounds 156-188, hypoxic conditions, VEGF protein by ELISA, read-out: ELISA EC50.
Regarding `Cc1ccc2[nH]c3c(c2c1)CCCC3NCCCO` (centres unmarked) [Compound 177, 3-(6-Methyl-2,3,4,9-tetrahydro-1H-carbazol-1-ylamino)-propan-1-ol], the EC50 is over 10000 nM.

Consider `OCCNC1CCCc2c1[nH]c1ccc(Br)cc21` (centres unmarked) [Compound 168, 2-(6-Bromo-2,3,4,9-tetrahydro-1H carbazol-1-ylamino)-ethanol hydrochloride], for which the EC50 was determined as 7720 nM.

As to `Cc1ccc2c(c1)c1c3n2CCCN(Cc2cccc(Cl)c2)C3CCC1` (centres unmarked) [Compound 180, 4-(3-Chloro-benzyl)-11-methyl-1,2,3,3a,4,5,6,7-octahydro-[1,4]diazepino[3,2,1-jk]carbazole], the EC50 is over 10000 nM.
